Data published in patent US8865704B2, “Wnt pathway antagonists” (Siena Biotech S.p.A., priority 2009, dated 2014).
pIC50: −log10 of the molar value.

Tested on: Wnt/β-catenin pathway
Experiment: Wnt reporter assay (TCF-Luciferase, Firefly) in DBTRG-05MG cells
Format: cell-based
Settings: Homo sapiens, 24 hours after compound addition
Protocol: TCF-Luciferase: Three copies of a 4×TCF responsive elements were cloned into the pcDNA3.1/Zeo(+) vector (Invitrogen) after deletion of the constitutive CMV promoter and the insertion of the Firefly Luciferase from Promega (phFL-TK) to measure the activity of the Wnt/β-catenin pathway. The resulting plasmid was sequenced for quality control.
Cells were grown in 20 μg/ml Zeocin and 20 μg/ml Zeocin plus 30 μg/ml Hygromicin respectively. The cells were plated at a density of 6500 cells/well in poly-D-lysine pre-treated 96 well-plates.
IC50 determination: 36 hours after plating cells were incubated with 8-points (60 μM-40 μM-20 μM-10 μM-5 μM-1.66 μM-0.55 μM-0.185 μM) dilutions compound (0.6% DMSO (v/v)). Each compound was tested in triplicate in single plate. Luciferase detection was done with Dual-Luciferase Reporter Assay System (Promega). 24 hours after compound addition, media was removed and 30 μl of 1× lysis buffer was added to each well for 30 minutes. To each well 45 μl of Dual-Glo Luciferase reagent (Promega) were added and after 1 second delay Luciferase was detected for 1 second using Mithras LB940 instrument. After Firefly luciferase quantification 45 μl of Dual Stop & Glo reagent (Promega) were added to each well and Firefly Renilla was detected using the same parameters described before.
Data were expressed as % of control for Firefly and Renilla luciferase independently; values were calculated using XLFit version 4.2, with a four parameters sigmoid function (XLFit model 205).

SMILES | pIC50
CN1C(=O)N(C[C@H]2CC[C@H](C(=O)N3CCN(C(=O)C4CCCC4)CC3)CC2)Cc2ccccc21 [Example 68] | 4.52 to 6.52
COCC(=O)N1CCN(C(=O)[C@H]2CC[C@H](CN3Cc4ccccc4N(C)C3=O)CC2)CC1 [Example 69] | 4.52 to 6.52
O=c1[nH]c2ccccc2c(=O)n1C[C@H]1CC[C@H](C(=O)Nc2cccc3cccnc23)CC1 [Example 70] | 4.52 to 6.52
O=C(C1CCCC1)N1CCN(C(=O)[C@H]2CC[C@H](CN3Cc4ccccc4NC3=O)CC2)CC1 [Example 72] | 4.52 to 6.52
O=C(C1CC1)N1CCN(C(=O)[C@H]2CC[C@H](Cn3c(=O)c4ccccc4n(CC4CC4)c3=O)CC2)CC1 [Example 73] | 4.52 to 6.52
O=C(C1CC1)N1CCN(C(=O)[C@H]2CC[C@H](Cn3c(=O)[nH]c4ccccc43)CC2)CC1 [Example 74] | 4.52 to 6.52
COc1ccc2c(c1)c(=O)n(C[C@H]1CC[C@H](C(=O)N3CCN(C(=O)C4CCCC4)CC3)CC1)c(=O)n2C [Example 76] | 4.52 to 6.52
Cn1c(=O)n(C[C@H]2CC[C@H](C(=O)N3CCN(C(=O)C4CCCO4)CC3)CC2)c(=O)c2ccccc21 (stereo partly shown) [Example 81] | 4.52 to 6.52
O=C(C1CC1)N1CCN(C(=O)[C@H]2CC[C@H](Cn3c(=O)[nH]c4ccc(F)cc4c3=O)CC2)CC1 [Example 82] | 4.52 to 6.52
O=C(C1CC1)N1CCN(C(=O)[C@H]2CC[C@H](Cn3c(=O)c4ccccc4n(C(F)F)c3=O)CC2)CC1 [Example 83] | 4.52 to 6.52
COc1ccc2c(c1)c(=O)n(C[C@H]1CC[C@H](C(=O)N3CCN(C(=O)C4CC4)CC3)CC1)c(=O)n2CC1CC1 [Example 84] | 4.52 to 6.52
O=C(C1CC1)N1CCN(C(=O)[C@H]2CC[C@H](CN3Cc4cc(Cl)ccc4NC3=O)CC2)CC1 [Example 85] | 4.52 to 6.52
COc1ccc2[nH]c(=O)n(C[C@H]3CC[C@H](C(=O)N4CCN(C)C(=O)C4)CC3)c(=O)c2c1 [Example 86] | 4.52 to 6.52
CCN1CCN(C(=O)[C@H]2CC[C@H](Cn3c(=O)[nH]c4ccc(OC)cc4c3=O)CC2)CC1=O [Example 87] | 4.52 to 6.52
COCCN1CCN(C(=O)[C@H]2CC[C@H](Cn3c(=O)[nH]c4ccc(OC)cc4c3=O)CC2)CC1=O [Example 88] | 4.52 to 6.52
COc1ccc2[nH]c(=O)n(C[C@H]3CC[C@H](C(=O)N4CCOCC4)CC3)c(=O)c2c1 [Example 89] | 4.52 to 6.52
COc1ccc2[nH]c(=O)n(C[C@H]3CC[C@H](C(=O)N4CCCOCC4)CC3)c(=O)c2c1 [Example 90] | 4.52 to 6.52
COc1ccc2[nH]c(=O)n(C[C@H]3CC[C@H](C(=O)N4CCN(c5cnccn5)CC4)CC3)c(=O)c2c1 [Example 91] | 4.52 to 6.52
CCN1CCN(C(=O)[C@H]2CC[C@H](Cn3c(=O)c4cc(OC)ccc4n(C)c3=O)CC2)CC1=O [Example 93] | 4.52 to 6.52
COCCN1CCN(C(=O)[C@H]2CC[C@H](Cn3c(=O)c4cc(OC)ccc4n(C)c3=O)CC2)CC1=O [Example 94] | 4.52 to 6.52
Cc1ccc2[nH]c(=O)n(C[C@H]3CC[C@H](C(=O)N4CCN(C(=O)C5CC5)CC4)CC3)c2c1 [Example 95] | 4.52 to 6.52

SMILES | pIC50
COc1ccc2[nH]c(=O)n(C[C@H]3CC[C@H](C(=O)N4CCN(C(=O)C(C)(C)F)CC4)CC3)c(=O)c2c1 [Example 96] | 4.52 to 6.52
COc1ccc2[nH]c(=O)n(C[C@H]3CC[C@H](C(=O)N4CCN(C(=O)C5CC5(F)F)CC4)CC3)c(=O)c2c1 (stereo partly shown) [Example 97] | 4.52 to 6.52
COc1ccc2[nH]c(=O)n(C[C@H]3CC[C@H](C(=O)N4CCN(c5ncccn5)CC4)CC3)c(=O)c2c1 [Example 98] | 4.52 to 6.52
CCCC(C)C(=O)N1CCN(C(=O)[C@H]2CC[C@H](Cn3c(=O)[nH]c4ccc(OC)cc4c3=O)CC2)CC1 (stereo partly shown) [Example 100] | 4.52 to 6.52
CCC(C)C(=O)N1CCN(C(=O)[C@H]2CC[C@H](Cn3c(=O)[nH]c4ccc(OC)cc4c3=O)CC2)CC1 (stereo partly shown) [Example 101] | 4.52 to 6.52
COc1ccc2[nH]c(=O)n(C[C@H]3CC[C@H](C(=O)N4CCN(C(=O)c5ccno5)CC4)CC3)c(=O)c2c1 [Example 102] | 4.52 to 6.52
COc1ccc2[nH]c(=O)n(C[C@H]3CC[C@H](C(=O)N4CCN(C(=O)OC(C)C)CC4)CC3)c(=O)c2c1 [Example 103] | 4.52 to 6.52
CCC(C)OC(=O)N1CCN(C(=O)[C@H]2CC[C@H](Cn3c(=O)[nH]c4ccc(OC)cc4c3=O)CC2)CC1 (stereo partly shown) [Example 104] | 4.52 to 6.52
COc1ccc2[nH]c(=O)n(C[C@H]3CC[C@H](C(=O)N4CCN(CC5CC5)C(=O)C4)CC3)c(=O)c2c1 [Example 105] | 4.52 to 6.52
COc1ccc2[nH]c(=O)n(C[C@H]3CC[C@H](C(=O)N4CCN(C(=O)C5CCC5)CC4)CC3)c(=O)c2c1 [Example 106] | 4.52 to 6.52
CC(C)(F)C(=O)N1CCN(C(=O)[C@H]2CC[C@H](Cn3c(=O)[nH]c4ccccc4c3=O)CC2)CC1 [Example 107] | 4.52 to 6.52
O=C(C1CC1(F)F)N1CCN(C(=O)[C@H]2CC[C@H](Cn3c(=O)[nH]c4ccccc4c3=O)CC2)CC1 (stereo partly shown) [Example 108] | 4.52 to 6.52
COc1ccc2[nH]c(=O)n(C[C@H]3CC[C@H](C(=O)N4CCN(C(=O)[C@@H]5CCCO5)CC4)CC3)c(=O)c2c1 [Example 110] | 4.52 to 6.52
O=C(C1CC1)N1CCN(C(=O)[C@H]2CC[C@H](Cn3c(=O)[nH]c4cc(Cl)ccc43)CC2)CC1 [Example 111] | 4.52 to 6.52
O=C(C1CC1)N1CCN(C(=O)[C@H]2CC[C@H](Cn3c(=O)[nH]c4cc(C(F)(F)F)ccc43)CC2)CC1 [Example 112] | 4.52 to 6.52
COc1ccc2[nH]c(=O)n(C[C@H]3CC[C@H](C(=O)Nc4ccncc4)CC3)c(=O)c2c1 [Example 113] | 4.52 to 6.52
COc1ccc2[nH]c(=O)n(C[C@H]3CC[C@H](C(=O)Nc4ccc5oc(C)nc5c4)CC3)c(=O)c2c1 [Example 114] | 4.52 to 6.52
COc1ccc2[nH]c(=O)n(C[C@H]3CC[C@H](C(=O)N4CCN(C(=O)c5cncn5C)CC4)CC3)c(=O)c2c1 [Example 115] | 4.52 to 6.52
COc1ccc2[nH]c(=O)n(C[C@H]3CC[C@H](C(=O)N4CCN(C(=O)c5ccncn5)CC4)CC3)c(=O)c2c1 [Example 117] | 4.52 to 6.52
COc1ccccc1NC(=O)[C@H]1CC[C@H](CN2CCc3ccccc3NC2=O)CC1 [Example 118] | 4.52 to 6.52
COc1ccccc1NC(=O)[C@H]1CC[C@H](CN2C(=O)Cc3ccccc3N(C)C2=O)CC1 [Example 119] | 4.52 to 6.52

SMILES | pIC50
COc1ccccc1NC(=O)[C@H]1CC[C@H](CN2C(=O)Cc3ccccc3NC2=O)CC1 [Example 120] | 4.52 to 6.52
COc1ccc2c(c1)c(=O)n(C[C@H]1CC[C@H](C(=O)N3CCN(c4nccs4)CC3)CC1)c(=O)n2C [Example 121] | 4.52 to 6.52
CCC(C)C(=O)N1CCN(C(=O)[C@H]2CC[C@H](Cn3c(=O)c4cc(OC)ccc4n(C)c3=O)CC2)CC1 (stereo partly shown) [Example 123] | 4.52 to 6.52
CCCC(C)C(=O)N1CCN(C(=O)[C@H]2CC[C@H](Cn3c(=O)c4cc(OC)ccc4n(C)c3=O)CC2)CC1 (stereo partly shown) [Example 124] | 4.52 to 6.52
COc1ccc2c(c1)c(=O)n(C[C@H]1CC[C@H](C(=O)N3CCN(C(=O)OCC(C)C)CC3)CC1)c(=O)n2C [Example 125] | 4.52 to 6.52
COc1ccc2[nH]c(=O)n(C[C@H]3CC[C@H](C(=O)N4CCN(C(=O)C5CC5)C[C@H]4C)CC3)c(=O)c2c1 [Example 126] | 4.52 to 6.52
COCC(=O)N1CCN(C(=O)[C@H]2CC[C@H](Cn3c(=O)[nH]c4ccc(OC)cc4c3=O)CC2)[C@H](C)C1 [Example 127] | 4.52 to 6.52
COc1ccc2c(c1)c(=O)n(C[C@H]1CC[C@H](C(=O)N3CCN(C(=O)[C@@H]4CCCO4)CC3)CC1)c(=O)n2C [Example 128] | 4.52 to 6.52
COc1ccc2c(c1)c(=O)n(C[C@H]1CC[C@H](C(=O)N3CCN(C(=O)C4CCC4)CC3)CC1)c(=O)n2C [Example 129] | 4.52 to 6.52
COc1ccc2c(c1)c(=O)n(C[C@H]1CC[C@H](C(=O)N3CCN(C(=O)OC(C)C)CC3)CC1)c(=O)n2C [Example 130] | 4.52 to 6.52
COc1ccc2c(c1)c(=O)n(C[C@H]1CC[C@H](C(=O)N3CCN(C(=O)[C@H]4CCCO4)CC3)CC1)c(=O)n2C [Example 131] | 4.52 to 6.52
COc1ccc2c(c1)c(=O)n(C[C@H]1CC[C@H](C(=O)N3CCN(CC4CC4)C(=O)C3)CC1)c(=O)n2C [Example 132] | 4.52 to 6.52
COCC(=O)N1CCN(C(=O)[C@H]2CC[C@H](Cn3c(=O)[nH]c4ccc(OC)cc4c3=O)CC2)[C@@H](C)C1 [Example 133] | 4.52 to 6.52
COc1ccc2[nH]c(=O)n(C[C@H]3CC[C@H](C(=O)N4CCN(C(=O)C5CC5)CC4)CC3)c2c1 [Example 134] | 4.52 to 6.52
COCCC(=O)N1CCN(C(=O)[C@H]2CC[C@H](Cn3c(=O)c4cc(OC)ccc4n(C)c3=O)CC2)CC1 [Example 137] | 4.52 to 6.52
COc1ccc2c(c1)c(=O)n(C[C@H]1CC[C@H](C(=O)N3CCN(C(=O)C4CC4)C[C@H]3C)CC1)c(=O)n2C [Example 138] | 4.52 to 6.52
COc1ccc2[nH]c(=O)n(C[C@H]3CC[C@H](C(=O)N4CCN(c5ccncc5)CC4)CC3)c(=O)c2c1 [Example 139] | 4.52 to 6.52
COc1ccc2[nH]c(=O)n(C[C@H]3CC[C@H](C(=O)N4CCN(c5cccc(OC)n5)CC4)CC3)c(=O)c2c1 [Example 140] | 4.52 to 6.52
COc1ccc2c(c1)c(=O)n(C[C@H]1CC[C@H](C(=O)N3CCN(C(=O)COC(C)C)CC3)CC1)c(=O)n2C [Example 141] | 4.52 to 6.52
